Results taken from patent publication US12240843B2, “Substituted 1,2,4-triazolo[4,3-a]pyridine derivative and preparation method, herbicidal composition and application thereof” (Qingdao Kingagroot Chemical Compound Co., Ltd., priority 2019, dated 2025).

How the values were obtained:
Format in all cases: in vivo
japonica rice = experiment: Post-emergence stage crop damage, greenhouse pot spray
Text: (§1) The activity level criteria for plant damage (i.e., growth control rate) are as follows: • Level 5: growth control rate is above 85%; • Level 4: growth control rate is greater than or equal to 60% and less than 85%; • Level 3: growth control rate is greater than or equal to 40% and less than 60%; • Level 2: growth control rate is greater than or equal to 20% and less than 40%; • Level 1: growth control rate is greater than or equal to 5% and less than 20%; • Level 0: growth control rate is less than 5%.
(§2) The above growth control rates are fresh weight control rates.
(§3) (1) Experiment on weeding effect in post-emergence stage: monocotyledonous and dicotyledonous weed seeds and major crop seeds (wheat, corn, rice, soybean, cotton, oilseed rape, millet, Sorghum) were placed in plastic pots filled with soil, then covered with 0.5-2 cm of soil, allowed to grow in a good greenhouse environment. After 2 weeks of sowing, the test plants were treated. The tested compounds of the present invention were respectively dissolved in acetone, then added with Tween 80, diluted with a certain amount of water to obtain a solution with a certain concentration, added with 1000 g/ha of emulsified methyl oleate as a synergist, and sprayed with a spray tower onto the plants. After the application, the plants were cultured for 3 weeks in the greenhouse, and then the experimental results of the weeding were listed in Table 2-3.

[1] = test system: Amaranthus retroflexus L.; experiment: Weeding effect in post-emergence stage, greenhouse pot spray; conditions: 240 g/ha active ingredient, plus water 450 kg/ha; weeds 2-3 leaf stage; 3 weeks after application
Description: as §2, §3

Digitaria sanguinalis [2] = experiment: as above
Description: as §2, §3

Echinochloa crusgalli [3] = experiment: as above
Description: as §2, §3

Leptochloa chinensis [4] = experiment: as above
Description: as §2, §3

Abutilon theophrasti = experiment: Weed effect in pre-emergence stage; conditions: direct seeding of rice; dose not given
Description: (§4) Seeds of monocotyledonous and dicotyledonous weeds and main crops (e.g. wheat, corn, rice, soybean, cotton, oilseed rape, millet and Sorghum) were put into a plastic pot loaded with soil and covered with 0.5-2 cm soil. The test compounds of the present invention was dissolved with acetone, then added with tween 80, diluted by a certain amount of water to reach a certain concentration, and sprayed immediately after sowing. The obtained seeds were incubated for 4 weeks in the greenhouse after spraying and the test results were observed. It was observed that the herbicide mostly had excellent effect at the application rate of 250 g a.i./ha, especially to weeds such as Echinochloa crusgalli, Digitaria sanguinalis, Leptochloa chinensis, and Abutilon theophrasti, etc. . . . And many compounds had good selectivity for corn, wheat, rice, soybean, and oilseed rape, etc. . . .

Digitaria sanguinalis [5] = experiment: Weed effect in pre-emergence stage; conditions: direct seeding of rice; dose not given
Description: as §4

Echinochloa crusgalli [6] = experiment: Weed effect in pre-emergence stage; conditions: direct seeding of rice; dose not given
Description: as §4

Leptochloa chinensis [7] = experiment: Weed effect in pre-emergence stage; conditions: direct seeding of rice; dose not given
Description: as §4

[8] = test system: rice (indica rice huanghuazhan); experiment: Post-emergence stage crop damage, greenhouse pot spray; conditions: for plant damage level, rice (indica rice huanghuazhan), post-emergence: 240 g/ha active ingredient, plus water 450 kg/ha, 3 weeks after application
Description: as §3

rice = experiment: Pre-emergence stage crop selectivity; conditions: dose not given
Description: as §4

Setaria viridis = experiment: Weeding effect in post-emergence stage, greenhouse pot spray
Text: as §1, §2, §3

[9] = 240 g/ha active ingredient, plus water 450 kg/ha, weeds 2-3 leaf stage, 3 weeks after application

Row | SMILES | plant damage level, japonica rice, post-emergence (japonica rice; Dose 30 g/ha) | plant damage level, japonica rice, post-emergence (japonica rice; Dose 60 g/ha) | plant damage level, japonica rice, post-emergence (japonica rice; Dose 120 g/ha) | weeding effect in post-emergence stage, Amaranthus retroflexus L. (activity level) [1] | weeding effect in post-emergence stage, Digitaria sanguinalis (activity level) (Digitaria sanguinalis [2]; [9]) | weeding effect in post-emergence stage, Digitaria sanguinalis (activity level) (Digitaria sanguinalis [2]; Dose 30 g/ha) | weeding effect in post-emergence stage, Digitaria sanguinalis (activity level) (Digitaria sanguinalis [2]; Dose 60 g/ha) | weeding effect in post-emergence stage, Digitaria sanguinalis (activity level) (Digitaria sanguinalis [2]; Dose 120 g/ha) | weeding effect in post-emergence stage, Echinochloa crusgalli (activity level) (Echinochloa crusgalli [3]; [9]) | weeding effect in post-emergence stage, Echinochloa crusgalli (activity level) (Echinochloa crusgalli [3]; Dose 30 g/ha) | weeding effect in post-emergence stage, Echinochloa crusgalli (activity level) (Echinochloa crusgalli [3]; Dose 60 g/ha) | weeding effect in post-emergence stage, Echinochloa crusgalli (activity level) (Echinochloa crusgalli [3]; Dose 120 g/ha) | weeding effect in post-emergence stage, Leptochloa chinensis (activity level) (Leptochloa chinensis [4]; [9]) | weeding effect in post-emergence stage, Leptochloa chinensis (activity level) (Leptochloa chinensis [4]; Dose 30 g/ha) | weeding effect in post-emergence stage, Leptochloa chinensis (activity level) (Leptochloa chinensis [4]; Dose 60 g/ha) | weeding effect in post-emergence stage, Leptochloa chinensis (activity level) (Leptochloa chinensis [4]; Dose 120 g/ha) | sealing effects on Abutilon theophrasti, pre-emergence (Abutilon theophrasti) | sealing effects on Digitaria sanguinalis, pre-emergence (Digitaria sanguinalis [5]) | sealing effects on Echinochloa crusgalli, pre-emergence (Echinochloa crusgalli [6]) | plant damage level, rice (indica rice huanghuazhan), post-emergence [8] | further results
1 | O=C1CCCC(=O)C1C(=O)c1ccn2c(C3CC3)nnc2c1Cl [Compound 2] | 0 (Level 0: growth control rate is less than 5%) | 0 (Level 0: growth control rate is less than 5%) | 0 (Level 0: growth control rate is less than 5%) | 5 (Level 5: growth control rate is above 85%) | 5 (Level 5: growth control rate is above 85%) | 5 (Level 5: growth control rate is above 85%) | 5 (Level 5: growth control rate is above 85%) | 5 (Level 5: growth control rate is above 85%) | 5 (Level 5: growth control rate is above 85%) | 5 (Level 5: growth control rate is above 85%) | 5 (Level 5: growth control rate is above 85%) | 5 (Level 5: growth control rate is above 85%) | 5 (Level 5: growth control rate is above 85%) | 5 (Level 5: growth control rate is above 85%) | 5 (Level 5: growth control rate is above 85%) | 5 (Level 5: growth control rate is above 85%) | excellent sealing effects | excellent sealing effects | excellent sealing effects | 0 (Level 0: growth control rate is less than 5%) | sealing effects on Leptochloa chinensis, pre-emergence (Leptochloa chinensis [7]): excellent sealing effects; plant damage level, indica rice, post-emergence ([8]; Dose 30 g/ha): 0 (Level 0: growth control rate is less than 5%); plant damage level, indica rice, post-emergence ([8]; Dose 60 g/ha): 0 (Level 0: growth control rate is less than 5%); plant damage level, indica rice, post-emergence ([8]; Dose 120 g/ha): 0 (Level 0: growth control rate is less than 5%); safety for direct seeding of rice, pre-emergence (rice): safe and efficient; weeding effect in post-emergence stage, Setaria viridis (activity level) (Setaria viridis; Dose 30 g/ha): 5 (Level 5: growth control rate is above 85%); weeding effect in post-emergence stage, Setaria viridis (activity level) (Setaria viridis; Dose 60 g/ha): 5 (Level 5: growth control rate is above 85%); weeding effect in post-emergence stage, Setaria viridis (activity level) (Setaria viridis; Dose 120 g/ha): 5 (Level 5: growth control rate is above 85%)
2 | O=C(c1ccn2c(C3CC3)nnc2c1Cl)C1C(=O)C2CCC(C2)C1=O (centres unmarked) [Compound 274] | 0 (Level 0: growth control rate is less than 5%) | 0 (Level 0: growth control rate is less than 5%) | 0 (Level 0: growth control rate is less than 5%) | 5 (Level 5: growth control rate is above 85%) | 5 (Level 5: growth control rate is above 85%) | 5 (Level 5: growth control rate is above 85%) | 5 (Level 5: growth control rate is above 85%) | 5 (Level 5: growth control rate is above 85%) | 5 (Level 5: growth control rate is above 85%) | 5 (Level 5: growth control rate is above 85%) | 5 (Level 5: growth control rate is above 85%) | 5 (Level 5: growth control rate is above 85%) | 5 (Level 5: growth control rate is above 85%) | 5 (Level 5: growth control rate is above 85%) | 5 (Level 5: growth control rate is above 85%) | 5 (Level 5: growth control rate is above 85%) | excellent sealing effects | excellent sealing effects | excellent sealing effects | 0 (Level 0: growth control rate is less than 5%) | sealing effects on Leptochloa chinensis, pre-emergence (Leptochloa chinensis [7]): excellent sealing effects; plant damage level, indica rice, post-emergence ([8]; Dose 30 g/ha): 0 (Level 0: growth control rate is less than 5%); plant damage level, indica rice, post-emergence ([8]; Dose 60 g/ha): 0 (Level 0: growth control rate is less than 5%); plant damage level, indica rice, post-emergence ([8]; Dose 120 g/ha): 0 (Level 0: growth control rate is less than 5%); safety for direct seeding of rice, pre-emergence (rice): safe and efficient; weeding effect in post-emergence stage, Setaria viridis (activity level) (Setaria viridis; Dose 30 g/ha): 5 (Level 5: growth control rate is above 85%); weeding effect in post-emergence stage, Setaria viridis (activity level) (Setaria viridis; Dose 60 g/ha): 5 (Level 5: growth control rate is above 85%); weeding effect in post-emergence stage, Setaria viridis (activity level) (Setaria viridis; Dose 120 g/ha): 5 (Level 5: growth control rate is above 85%)
3 | CSc1nnc2c(Cl)c(C(=O)C3C(=O)CCCC3=O)ccn12 [Compound 118] | – | – | – | 5 (Level 5: growth control rate is above 85%) | 5 (Level 5: growth control rate is above 85%) | – | – | – | 5 (Level 5: growth control rate is above 85%) | – | – | – | 5 (Level 5: growth control rate is above 85%) | – | – | – | – | – | – | 0 (Level 0: growth control rate is less than 5%) | –
4 | COc1nnc2c(Cl)c(C(=O)C3C(=O)CCCC3=O)ccn12 [Compound 114] | – | – | – | 5 (Level 5: growth control rate is above 85%) | 5 (Level 5: growth control rate is above 85%) | – | – | – | 5 (Level 5: growth control rate is above 85%) | – | – | – | 5 (Level 5: growth control rate is above 85%) | – | – | – | – | – | – | 0 (Level 0: growth control rate is less than 5%) | –
5 | O=C1CCCC(=O)C1C(=O)c1ccn2c(C3CC3(F)F)nnc2c1Cl (centres unmarked) [Compound 87] | – | – | – | 5 (Level 5: growth control rate is above 85%) | 4 (Level 4: growth control rate is greater than or equal to 60% and less than 85%) | – | – | – | 4 (Level 4: growth control rate is greater than or equal to 60% and less than 85%) | – | – | – | 5 (Level 5: growth control rate is above 85%) | – | – | – | – | – | – | 0 (Level 0: growth control rate is less than 5%) | –
